Where a SMILES comes first, the peptide text is derived from it. [ ]: non-standard residue; d: D form. The star is where a group is joined. ξ: configuration not given here. NMeW = CN[C@@H](Cc1c[nH]c2ccccc12)C(=O)O; Stearoyl = CCCCCCCCCCCCCCCCCC(=O)*; ξαMeV = CC(C)C(C)(N)C(=O)O; ξαMeS = CC(N)(CO)C(=O)O; GABA = NCCCC(=O)O
How the values were obtained:
[1] = test system: EMS lesion; details: across the subtypes of EMS; cited from earlier work
[2] = test system: mouse EMS lesion cells; assay type: cell-based
Experimental: (§1) Peptides inhibiting β-catenin cause decreased cell viability in a colon cancer cell line (SW480) and endometriosis lesions excised from a disease animal model. Peptides from libraries described herein are characterized in their effect on cell viability, as measured using a luminescent cell viability assay (Cell Titer-Glo®, Promega, Madison, WI) and expressed as IC50 in Table 5. Peptide inhibitors were tested for their ability to inhibit cellular proliferation across 2 different β-catenin expressing pathogenic cell lines: a colon cancer cell line (SW480) and/or mouse EMS lesion cells derived from mouse model of disease. Both cells lines are naturally known to express high levels of β-catenin. Cell lines were incubated with varying concentrations of peptide concentration and assessed for viability after day 5 and 7 days. The CellTiter-Glo® Luminescent Cell Viability Assay (Promega) is used to detect viable cells. IC50 values are graphed and calculated using Prism software (GraphPad) based on the cell viability readouts. IC50 is used to assess inhibition of cell proliferation by peptide concentration and is used to calculate the inhibitory effect of each peptide across each line. The results are used to assess the therapeutic potency of the peptides. In the SW480 cell line, peptide inhibitors from Family 1 (SEQ ID NO:264) and Family 2 (SEQ ID NO:396) were added daily to the cell growth medium. After 7 days, cell viability was assessed with the Cell-Titer Glo kit (Promega, Madison, WI). […] IC50 was calculated for peptides based on the concentration at which 50% viability was observed (Table 5).

[3] = test system: colon cancer cell line (SW480); assay type: cell-based
Experimental: as §1

[4] = biological target: Wnt-responsive promoter (TCF/LEF); assay: Wnt-dependent luciferase reporter assay; assay type: cell-based, murine
Outline: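 Murine 3T3 fibroblasts carrying a TCF/LEF-driven luciferase reporter, stimulated with Wnt3a in the presence of increasing peptide concentrations or vehicle. Luminescence inhibition gave EC50 values in uM.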

[5] = biological target: T1, β-catenin (Homo sapiens, UniProt P35222); assay: KD50 measurement using competitive fluorescence polarization (FP) with labelled TCF4; assay type: binding; details: fluorescence polarization, β-catenin; for Kd: read-out: β-Cat FP KD
T1 sequence (P35222 1-781): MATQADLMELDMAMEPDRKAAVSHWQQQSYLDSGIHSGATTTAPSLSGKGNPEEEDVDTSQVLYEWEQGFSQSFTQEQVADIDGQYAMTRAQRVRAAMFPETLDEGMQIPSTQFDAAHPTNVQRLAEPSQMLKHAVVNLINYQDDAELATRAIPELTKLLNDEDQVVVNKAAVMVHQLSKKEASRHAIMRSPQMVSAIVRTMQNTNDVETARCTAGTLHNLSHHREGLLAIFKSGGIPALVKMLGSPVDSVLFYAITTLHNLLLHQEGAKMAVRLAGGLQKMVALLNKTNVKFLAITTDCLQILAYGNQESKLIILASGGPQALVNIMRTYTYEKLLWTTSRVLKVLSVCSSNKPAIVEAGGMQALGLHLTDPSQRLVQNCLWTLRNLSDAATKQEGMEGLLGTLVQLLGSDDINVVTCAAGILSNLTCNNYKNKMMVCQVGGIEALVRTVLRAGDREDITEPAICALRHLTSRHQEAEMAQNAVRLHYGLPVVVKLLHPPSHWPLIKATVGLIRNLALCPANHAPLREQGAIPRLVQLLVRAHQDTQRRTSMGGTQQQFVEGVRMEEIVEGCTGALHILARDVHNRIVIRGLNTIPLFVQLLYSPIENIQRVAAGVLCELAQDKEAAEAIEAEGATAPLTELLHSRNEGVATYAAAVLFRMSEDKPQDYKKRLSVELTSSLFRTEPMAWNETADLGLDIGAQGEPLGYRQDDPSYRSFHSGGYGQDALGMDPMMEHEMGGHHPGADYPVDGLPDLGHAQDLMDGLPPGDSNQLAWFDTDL
Outline: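 Polarization readout (470 nm excitation, 520 nm emission) tracks loss of labelled TCF4 binding to β-catenin as test compound competes. Conditions were 5 nM tracer, 100 nM β-catenin, room temperature, compound serially diluted from 10 nM to 30 uM; run in triplicate experiments.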

[6] = % Viability non-Wnt responsive cells

Compound	IC50 [2] [µM]	IC50 [3] [µM]	EC50 [4] [µM]	β-Cat FP Hill slope [5]	Kd [5] [µM]	further results
PKF 115-584	–	–	–	–	–	EMS lesion progression [1]: successfully reversed
CC[C@@H]1NC(=O)[C@H]([C@@H](C)CC)NC(=O)[C@H](CC(C)C)NC(=O)[C@H](CC2CCCCC2)NC(=O)[C@H](Cc2c[nH]c3ccccc23)NC(=O)[C@@H](NC(C)=O)CCCCNC(=O)C[C@@H](C(=O)O)NC(=O)[C@H](Cc2c[nH]c3ccccc23)NC(=O)[C@H](C)NC1=O [compound 261] (HELM PEPTIDE1{[ac].K.W.[Cha].L.I.[Abu].A.W.D}$PEPTIDE1,PEPTIDE1,2:R3-10:R3$$$V2.0)	7.7	4	7.5 to 15	3	0.4 to 1	–
CC[C@@H]1NC(=O)[C@H]([C@@H](C)CC)NC(=O)[C@H](CC(C)C)NC(=O)[C@H](C2CCCCC2)NC(=O)[C@H](Cc2c[nH]c3ccccc23)NC(=O)[C@@H](NC(C)=O)CCCCNC(=O)C[C@@H](C(=O)O)NC(=O)[C@H](Cc2c[nH]c3ccccc23)NC(=O)[C@H](C)NC1=O [compound 262] (HELM PEPTIDE1{[ac].K.W.[O=C([C@@H](N[*:1])C1CCCCC1)[*:2]].L.I.[Abu].A.W.D}$PEPTIDE1,PEPTIDE1,2:R3-10:R3$$$V2.0)	26.3	5	–	3	0.4 to 1	–
CCCCCCCCCCCC(=O)N[C@@H](Cc1c[nH]c2ccccc12)C(=O)N(C)[C@@H](C)C(=O)N[C@@H](CCC(N)=O)C(=O)N[C@H]1CCCCNC(=O)C[C@@H](C(=O)N[C@@H](Cc2c[nH]cn2)C(=O)N[C@H](C(=O)N[C@@H](CCC(N)=O)C(=O)N[C@@H](CCCNC(=N)N)C(=O)N[C@H](C(=O)N[C@@H](Cc2c[nH]c3ccccc23)C(=O)NCC(N)=O)C(C)C)C2CCCCC2)NC(=O)[C@H](CC(=O)O)NC(=O)[C@H](CC(C)C)NC(=O)[C@H]([C@@H](C)CC)NC1=O [compound 432] (HELM PEPTIDE1{[CCCCCCCCCCCC(=O)[*:2]].W.[meA].Q.K.I.L.D.D.H.[O=C([C@@H](N[*:1])C1CCCCC1)[*:2]].Q.R.V.W.G.[am]}$PEPTIDE1,PEPTIDE1,5:R3-9:R3$$$V2.0)	0.8	14.9	–	–	< 0.4	–
O=C(Nc1ccc([N+](=O)[O-])cc1Cl)c1cc(Cl)ccc1O [niclosamide]	–	–	–	–	–	EMS lesion progression [1]: successfully reversed
CC[C@H](C)[C@@H]1NC(=O)[C@@H](NC(=O)[C@H](CCC(N)=O)NC(=O)[C@H](C)N(C)C(=O)[C@H](Cc2c[nH]c3ccccc23)NC(=O)CCC(=O)O)CCCCNC(=O)CC[C@@H](C(=O)N[C@@H](Cc2c[nH]cn2)C(=O)N[C@H](C(=O)N[C@@H](CCC(N)=O)C(=O)N[C@@H](CCCNC(=N)N)C(=O)N[C@H](C(=O)N[C@@H](Cc2c[nH]c3ccccc23)C(=O)NCC(N)=O)C(C)C)C2CCCCC2)NC(=O)[C@H](CC(=O)O)NC(=O)[C@H](CC(C)C)NC1=O [compound 405] (HELM PEPTIDE1{[O=C(O)CCC(=O)[*:2]].W.[meA].Q.K.I.L.D.E.H.[O=C([C@@H](N[*:1])C1CCCCC1)[*:2]].Q.R.V.W.G.[am]}$PEPTIDE1,PEPTIDE1,5:R3-9:R3$$$V2.0)	–	26.8	15 to 22.5	0.7	< 0.4	–
CCCC[C@@H]1NC(=O)[C@@H](NC(C)=O)CCCCNC(=O)C[C@@H](C(=O)O)NC(=O)[C@H](Cc2c[nH]c3ccccc23)NC(=O)[C@H](C)NC(=O)[C@H](CC)NC(=O)[C@H]([C@@H](C)CC)NC(=O)[C@H](CC(C)C)NC(=O)[C@H](CC2CCCCC2)NC(=O)[C@H](Cc2c[nH]c3ccccc23)NC1=O [compound 215] (HELM PEPTIDE1{[ac].K.[Nle].W.[Cha].L.I.[Abu].A.W.D}$PEPTIDE1,PEPTIDE1,2:R3-11:R3$$$V2.0)	> 30	–	> 30	1.69	–	viability [6]: 106%
Lauroyl-NH-W-NMeA-QK*ILDE*H-Chg-E*DVWK*-NH2 (WAQKILDEHGEDVWK; HELM PEPTIDE1{[CCCCCCCCCCCC(=O)[*:2]].W.[meA].Q.K.I.L.D.E.H.[O=C([C@@H](N[*:1])C1CCCCC1)[*:2]].E.D.V.W.K.[am]}$PEPTIDE1,PEPTIDE1,12:R3-16:R3|PEPTIDE1,PEPTIDE1,5:R3-9:R3$$$V2.0; SMILES CCCCCCCCCCCC(=O)N[C@@H](Cc1c[nH]c2ccccc12)C(=O)N(C)[C@@H](C)C(=O)N[C@@H](CCC(N)=O)C(=O)N[C@H]1CCCCNC(=O)CC[C@@H](C(=O)N[C@@H](Cc2c[nH]cn2)C(=O)N[C@H](C(=O)N[C@H]2CCC(=O)NCCCC[C@@H](C(N)=O)NC(=O)[C@H](Cc3c[nH]c4ccccc34)NC(=O)[C@H](C(C)C)NC(=O)[C@H](CC(=O)O)NC2=O)C2CCCCC2)NC(=O)[C@H](CC(=O)O)NC(=O)[C@H](CC(C)C)NC(=O)[C@H]([C@@H](C)CC)NC1=O; listed as Homo sapiens) [SEQ ID NO: 465]	–	–	–	–	–	Cell growth / viability ([2]; mouse EMS lesion cells, peptide added daily 0.024-25 uM, 5 days): inhibited cell growth
CCCCCCCCCCCCCCCC(=O)N[C@@H](Cc1c[nH]c2ccccc12)C(=O)N(C)[C@@H](Cc1c[nH]c2ccccc12)C(=O)N[C@@H](CCC(=O)O)C(=O)NC(C)(CO)C(=O)N[C@H](C(=O)N[C@@H](CC(C)C)C(=O)N[C@@H](CC(=O)O)C(=O)N[C@@H](CCC(=O)O)C(=O)N[C@@H](Cc1c[nH]cn1)C(=O)NC(C)(C(=O)N[C@@H](CCC(N)=O)C(=O)N[C@@H](CCCNC(=N)N)C(=O)N[C@H](C(=O)N[C@@H](Cc1c[nH]c2ccccc12)C(=O)NCC(=O)O)C(C)C)C(C)C)[C@@H](C)CC (single isomer, unassigned) [compound 396]	15	2.9	7.5 to 15	–	–	–
CGP049090	–	–	–	–	–	EMS lesion progression [1]: successfully reversed
CCCCCCCCCCCCCCCCCC(=O)N[C@@H](Cc1c[nH]c2ccccc12)C(=O)N(C)[C@@H](Cc1c[nH]c2ccccc12)C(=O)N[C@@H](CCC(=O)O)C(=O)NC(C)(CO)C(=O)N[C@H](C(=O)N[C@@H](CC(C)C)C(=O)N[C@@H](CC(=O)O)C(=O)N[C@@H](CCC(=O)O)C(=O)N[C@@H](Cc1c[nH]cn1)C(=O)NC(C)(C(=O)N[C@@H](CCC(N)=O)C(=O)N[C@@H](CCCNC(=N)N)C(=O)N[C@H](C(=O)N[C@@H](Cc1c[nH]c2ccccc12)C(=O)O)C(C)C)C(C)C)[C@@H](C)CC (single isomer, unassigned) [393/500]	5	1.7	–	–	> 30	–
CCCCCCCCCCCCCCCCCC(=O)NCCCC(=O)N[C@@H](Cc1c[nH]c2ccccc12)C(=O)N(C)[C@@H](Cc1c[nH]c2ccccc12)C(=O)N[C@@H](CCC(=O)O)C(=O)NC(C)(CO)C(=O)N[C@H](C(=O)N[C@@H](CC(C)C)C(=O)N[C@@H](CC(=O)O)C(=O)N[C@@H](CCC(=O)O)C(=O)N[C@@H](Cc1c[nH]cn1)C(=O)NC(C)(C(=O)N[C@@H](CCC(N)=O)C(=O)N[C@@H](CCCNC(=N)N)C(=O)N[C@H](C(=O)N[C@@H](Cc1c[nH]c2ccccc12)C(=O)O)C(C)C)C(C)C)[C@@H](C)CC (stereo partly shown) [compound 395] ({Stearoyl-GABA}-W[NMeW]E[ξαMeS]ILDEH[ξαMeV]QRVW-OH)	–	6.8	7.5 to 15	–	–	–
CCCCCCCCCCCCCCCCCC(=O)N[C@@H](Cc1c[nH]c2ccccc12)C(=O)N(C)[C@@H](Cc1c[nH]c2ccccc12)C(=O)N[C@@H](CCC(=O)O)C(=O)NC(C)(CO)C(=O)N[C@H](C(=O)N[C@@H](CC(C)C)C(=O)N[C@@H](CC(=O)O)C(=O)N[C@@H](CCC(=O)O)C(=O)N[C@@H](Cc1c[nH]cn1)C(=O)NC(C)(C(=O)N[C@@H](CCC(N)=O)C(=O)N[C@@H](CCCNC(=N)N)C(=O)N[C@H](C(=O)N[C@@H](Cc1c[nH]c2ccccc12)C(=O)NCC(=O)O)C(C)C)C(C)C)[C@@H](C)CC (stereo partly shown) [compound 390] (Stearoyl-W[NMeW]E[ξαMeS]ILDEH[ξαMeV]QRVWG-OH)	–	4.7	7.5 to 15	–	–	–
